From patent US20240207455A1, “COMBINATION COMPRISING A NEUROTENSIN RECEPTOR BINDING COMPOUND AND NAPOX” (Fusion Pharmaceuticals Inc., priority 2021, published 2024)

Tested on: subcutaneous AsPC1 tumors
Assay: Efficacy study in mice bearing subcutaneous AsPC1 tumors (tumor volume)
Format: in vivo, SWISS Nude mice
Details: ^177Lu-IPN01087 20 MBq/mouse IV weekly x3; NAPOX: oxaliplatin 3.75 mg/kg, liposomal irinotecan 16 mg/kg, folinic acid 75 mg/kg, 5-FU 37.5 mg/kg weekly x2; Groups 2, 3, 5 vs vehicles
Method: The AsPC1 cell line was isolated from a metastatic site (ascites) from a patient (Chen WH. et al., In Vitro. 1982 January; 18(1):24-34).
Tumor cells were grown as monolayer at 37° C. in a humidified atmosphere (5% CO2, 95% air). The culture medium is RPMI 1640 containing glutamax supplemented with 10% heat inactivated fetal bovine serum, sodium pyruvate and hepes. For experimental use, tumor cells were detached from the culture flask using accutase and neutralized by addition of complete culture medium. The cells were counted and their viability was assessed by 0.25% trypan blue exclusion assay. Two frozen pellets of AsPC-1 tumor cells were prepared: one frozen cell pellet prepared during the in-vitro cell culture, and one frozen cell pellet prepared using the cell suspension used for tumor induction in mice.
One hundred fifty (150) healthy female SWISS Nude mice (Crl:NU(Ico)-Foxn1 nu), 6-7 weeks old at reception, were obtained from Charles River.
Tumors were induced by subcutaneous injection of ten million (10^7) AsPC-1 cells in 200 μL of RPMI 1640 medium containing matrigel (50:50, v:v, ref: 356237, BD Biosciences, France) into the right flank (in the axis of the heart) of 150 female animals. […]
The treatment efficacy was assessed in terms of the effects of the treatments on the tumor volumes of treated animals relative to control animals. […]

^177Lu-zalsenertant tetraxetan [^177Lu-IPN01087]
AsPC-1 tumor growth (tumor volume), FIG. 2: produced an antitumor effect when compared to the vehicles
